{
  "source": "patent US20170057955A1",
  "about": "“Pyridopyrimidinone Compounds for Modulating the Catalytic Activity of Histone Lysine Demethylases (KDMs)” (Dong-A Socio Holdings Co., Ltd., priority 2015, published 2017)",
  "molecular_target": "T1, Recombinant human JARID1B/KDM5B (Homo sapiens, UniProt Q9UGL1)",
  "T1 construct": "purchased Active Motif 31432; host or cells: Sf9 insect cells",
  "T1 sequence (Q9UGL1 whole entry)": "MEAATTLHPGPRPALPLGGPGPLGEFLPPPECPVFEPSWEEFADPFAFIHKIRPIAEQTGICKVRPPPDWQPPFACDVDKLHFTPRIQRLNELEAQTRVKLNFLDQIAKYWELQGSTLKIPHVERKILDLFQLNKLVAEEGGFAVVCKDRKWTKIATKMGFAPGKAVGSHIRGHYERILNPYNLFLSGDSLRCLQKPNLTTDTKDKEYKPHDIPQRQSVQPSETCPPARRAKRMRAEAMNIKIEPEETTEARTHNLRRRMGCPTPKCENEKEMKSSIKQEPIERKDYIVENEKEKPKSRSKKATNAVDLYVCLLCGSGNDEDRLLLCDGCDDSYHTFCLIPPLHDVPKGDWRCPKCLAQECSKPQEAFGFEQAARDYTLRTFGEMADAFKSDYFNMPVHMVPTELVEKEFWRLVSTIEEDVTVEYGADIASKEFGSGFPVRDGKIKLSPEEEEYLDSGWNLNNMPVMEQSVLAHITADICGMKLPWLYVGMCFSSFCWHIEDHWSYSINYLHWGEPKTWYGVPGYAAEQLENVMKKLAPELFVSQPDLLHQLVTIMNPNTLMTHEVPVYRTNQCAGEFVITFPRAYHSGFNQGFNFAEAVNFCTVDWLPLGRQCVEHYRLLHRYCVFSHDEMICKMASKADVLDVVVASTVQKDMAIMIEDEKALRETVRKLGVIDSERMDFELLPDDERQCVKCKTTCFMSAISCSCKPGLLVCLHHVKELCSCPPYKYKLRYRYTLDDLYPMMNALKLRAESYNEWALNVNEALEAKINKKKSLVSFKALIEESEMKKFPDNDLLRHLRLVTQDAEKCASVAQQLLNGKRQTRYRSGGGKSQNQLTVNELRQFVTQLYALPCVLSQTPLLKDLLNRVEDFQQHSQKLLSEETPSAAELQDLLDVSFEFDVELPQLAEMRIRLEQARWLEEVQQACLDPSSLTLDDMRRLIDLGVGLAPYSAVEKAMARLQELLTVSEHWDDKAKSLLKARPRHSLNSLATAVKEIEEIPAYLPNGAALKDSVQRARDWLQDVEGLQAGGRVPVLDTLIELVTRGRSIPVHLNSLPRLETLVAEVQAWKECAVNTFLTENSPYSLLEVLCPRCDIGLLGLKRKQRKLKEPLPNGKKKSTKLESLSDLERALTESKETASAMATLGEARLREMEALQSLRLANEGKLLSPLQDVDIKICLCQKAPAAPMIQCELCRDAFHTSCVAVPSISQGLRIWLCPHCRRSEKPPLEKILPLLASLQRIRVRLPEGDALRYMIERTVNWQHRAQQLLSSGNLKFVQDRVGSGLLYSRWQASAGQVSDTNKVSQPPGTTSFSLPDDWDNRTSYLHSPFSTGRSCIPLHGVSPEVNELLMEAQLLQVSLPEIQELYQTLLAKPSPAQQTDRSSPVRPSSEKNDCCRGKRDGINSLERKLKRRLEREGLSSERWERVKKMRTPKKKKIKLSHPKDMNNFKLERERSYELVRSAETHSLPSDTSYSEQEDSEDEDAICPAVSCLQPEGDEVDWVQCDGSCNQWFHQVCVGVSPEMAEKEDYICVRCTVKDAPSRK",
  "assay": "LANCE Ultra TR-FRET JARID1B (KDM5B) demethylase inhibition assay",
  "type": "biochemical",
  "settings": "0.1 uM of test-compounds, FLAG-JARID1B, 500 nM biotinylated H3K4me3 peptide substrate, 30 min at room temperature",
  "from_the_text": "FLAG-tagged JARID1B (also known as KDM5B) protein was screened against 49 compounds. For this compound screening, LANCE Ultra time-resolved fluorescence resonance energy transfer (TR-FRET) assay was employed using a europoium (Eu)-labeled antibody that can specifically recognize mono- or dimethylated peptides (H3K4me2/1) and ULight-streptavidin (ULight-SA), a small molecule fluorescent dye. When irradiated at 340 nm, the energy from the Eu donor is transferred to the ULight acceptor dye which, in turn, emits light primarily at 665 nm. The ratio between the intensity of primary emission at 665 nm and that of secondary emission at […] was used to quantify the level of lysine methylation. As JARID1B removes more methyl moieties from tri-methylated substrate peptides (H3K4me3), the ratio increases until the enzyme reaction is terminated. In case, therefore, the compounds disrupt the enzymatic activity completely, the ratio becomes equal to a background value.\nRecombinant human JARID1B/KDM5B (accession number NP_006609) of molecular weight 179.9 KDa was expressed in Sf9 insect cells and contains an N-terminal FLAG tag. The enzyme was obtained from Active Motif (Catalog No. 31432). The tri-methylated histone substrate peptide of purity greater than 95% was a synthetic peptide in which the first 21 amino acids correspond to the human histone H3 sequence with three extra amino acids and a biotin motif (GGK-biotin) linked to the C-terminus [sequence: ART-K(Me3)-QTARKSTGGKAPRKQLA-GGK-biotin-OH], (AnaSpec, Fremont, Calif. Catalog. No. ANA-1413). The reference inhibitor compound tranylcypromine (or trans-2-phenylcyclopropylamine hydrochloride, also known as, 2-PCPA) was purchased from Sigma (St. Louis, Mo. Cat. no. P8511). ULight-labeled streptavidin (ULight-SA, Catalog no. TRF0102), Eu-W1024-labeled anti-methyl-Histone H3 Lysine 4 (H3K4me1-2) Antibody (Catalog no. TRF0402), and LANCE detection buffer 10× (Catalog no. CR97-100) were obtained from PerkinElmer (Montreal, Quebec, Canada). The TR-FRET experiments were carried out in white, low-volume 384-wellplates purchased from PerkinElmer (ProxiPlate_-384 Plus, Catalog no. 6008280).\nThe TR-FRET signal was measured in the presence both of the bio-H3K4me3 peptide and FLAG-JARID1B by detecting any H3K4me2/1 peptide produced in the assay system. Assays using only the bio-H3K4me2 peptide were served as a positive control. Robust enzymatic progressions were observed by using JARID1B at concentrations ranging from 10 to 30 nM. In a typical TR-FRET experiment, JARID1B was pre-incubated with or without 0.1 uM of test-compounds (containing 1% DMSO final) for 5 min. The enzymatic reactions were initiated by the addition of 500 nM biotinylated H3K4me3 peptide substrate plus 500 uM of 2-OG 25 uM Fe(II) and 2 mM ascorbate. The reaction buffer also contained 50 mM Hepes (pH7.5), 0.01% (v/v) Tween 20, and 50 mM NaCl. The reaction mixture was incubated for 30 min at room temperature before reading on an EnVision plate reader (PerkinElmer, Waltham, Mass.).",
  "data": [
    {"compound": "CN1CCN(Cc2ccc(-c3cn(-c4nccc5c(=O)[nH]cnc45)nc3N)cc2)CC1", "note": "[Compound 33, 8-(3-amino-4-(4-((4-methylpiperazin-1-yl)methyl)phenyl)-1H-pyrazol-1-yl)pyrido[3,4-d]pyrimidin-4(3H)-one]", "values": [
      {"measurement": "inhibition at 0.1 µM", "result": "20 to 50", "unit": "%"}
    ]},
    {"compound": "Nc1nn(-c2nccc3c(=O)[nH]cnc23)cc1-c1ccc(CN2CCCC2)cc1", "note": "[Compound 34, 8-(3-amino-4-(4-(pyrrolidin-1-ylmethyl)phenyl)-1H-pyrazol-1-yl)pyrido[3,4-d]pyrimidin-4(3H)-one]", "values": [
      {"measurement": "inhibition at 0.1 µM", "result": "20 to 50", "unit": "%"}
    ]},
    {"compound": "Nc1nn(-c2nccc3c(=O)[nH]cnc23)cc1-c1cnn(C2CCCC2)c1", "note": "[Compound 35, 8-(3-amino-1′-cyclopentyl-1H,1′H-[4,4′-bipyrazol]-1-yl)pyrido[3,4-d]pyrimidin-4(3H)-one]", "values": [
      {"measurement": "inhibition at 0.1 µM", "result": "20 to 50", "unit": "%"}
    ]},
    {"compound": "Nc1nn(-c2nccc3c(=O)[nH]cnc23)cc1-c1cccc(CO)c1", "note": "[Compound 36, 8-(3-amino-4-(3-(hydroxymethyl)phenyl)-1H-pyrazol-1-yl)pyrido[3,4-d]pyrimidin-4(3H)-one]", "values": [
      {"measurement": "inhibition at 0.1 µM", "result": "20 to 50", "unit": "%"}
    ]},
    {"compound": "CN1CCN(Cc2cccc(-c3cn(-c4nccc5c(=O)[nH]cnc45)nc3N)c2)CC1", "note": "[Compound 37, 8-(3-amino-4-(3-((4-methylpiperazin-1-yl)methyl)phenyl)-1H-pyrazol-1-yl)pyrido[3,4-d]pyrimidin-4(3H)-one]", "values": [
      {"measurement": "inhibition at 0.1 µM", "result": "< 20", "unit": "%"}
    ]},
    {"compound": "O=c1[nH]cnc2c(-c3csc(NCCO)n3)nccc12", "note": "[Compound 38, 8-(2-((2-hydroxyethyl)amino)thiazol-4-yl)pyrido[3,4-d]pyrimidin-4(3H)-one]", "values": [
      {"measurement": "inhibition at 0.1 µM", "result": "≥ 50", "unit": "%"}
    ]},
    {"compound": "C[C@H](O)CNc1nc(-c2nccc3c(=O)[nH]cnc23)cs1", "note": "[Compound 39, (S)-8-(2-((2-hydroxypropyl)amino)thiazol-4-yl)pyrido[3,4-d]pyrimidin-4(3H)-one]", "values": [
      {"measurement": "inhibition at 0.1 µM", "result": "≥ 50", "unit": "%"}
    ]},
    {"compound": "C[C@@H](O)CNc1nc(-c2nccc3c(=O)[nH]cnc23)cs1", "note": "[Compound 40, (R)-8-(2-((2-hydroxypropyl)amino)thiazol-4-yl)pyrido[3,4-d]pyrimidin-4(3H)-one]", "values": [
      {"measurement": "inhibition at 0.1 µM", "result": "≥ 50", "unit": "%"}
    ]},
    {"compound": "O=c1[nH]cnc2c(-c3csc(NCC4CCCO4)n3)nccc12", "note": "(centres unmarked) [Compound 41, 8-(2-(((tetrahydrofuran-2-yl)methyl)amino)thiazol-4-yl)pyrido[3,4-d]pyrimidin-4(3H)-one]", "values": [
      {"measurement": "inhibition at 0.1 µM", "result": "≥ 50", "unit": "%"}
    ]},
    {"compound": "COCCNc1nc(-c2nccc3c(=O)[nH]cnc23)cs1", "note": "[Compound 42, 8-(2-((2-methoxyethyl)amino)thiazol-4-yl)pyrido[3,4-d]pyrimidin-4(3H)-one]", "values": [
      {"measurement": "inhibition at 0.1 µM", "result": "≥ 50", "unit": "%"}
    ]},
    {"compound": "CN(C)CCNc1nc(-c2nccc3c(=O)[nH]cnc23)cs1", "note": "[Compound 43, 8-(2-((2-(dimethylamino)ethyl)amino)thiazol-4-yl)pyrido[3,4-d]pyrimidin-4(3H)-one]", "values": [
      {"measurement": "inhibition at 0.1 µM", "result": "20 to 50", "unit": "%"}
    ]},
    {"compound": "NCCNc1nc(-c2nccc3c(=O)[nH]cnc23)cs1", "note": "[Compound 44, 8-(2-((2-aminoethyl)amino)thiazol-4-yl)pyrido[3,4-d]pyrimidin-4(3H)-one]", "values": [
      {"measurement": "inhibition at 0.1 µM", "result": "20 to 50", "unit": "%"}
    ]},
    {"compound": "CN1CCN(CCNc2nc(-c3nccc4c(=O)[nH]cnc34)cs2)CC1", "note": "[Compound 45, 8-(2-((2-(4-methylpiperazin-1-yl)ethyl)amino)thiazol-4-yl)pyrido[3,4-d]pyrimidin-4(3H)-one]", "values": [
      {"measurement": "inhibition at 0.1 µM", "result": "20 to 50", "unit": "%"}
    ]},
    {"compound": "O=c1[nH]cnc2c(-c3csc(NCCCO)n3)nccc12", "note": "[Compound 46, 8-(2-((3-hydroxypropyl)amino)thiazol-4-yl)pyrido[3,4-d]pyrimidin-4(3H)-one]", "values": [
      {"measurement": "inhibition at 0.1 µM", "result": "20 to 50", "unit": "%"}
    ]},
    {"compound": "CN(C)CCCNc1nc(-c2nccc3c(=O)[nH]cnc23)cs1", "note": "[Compound 47, 8-(2-((3-(dimethylamino)propyl)amino)thiazol-4-yl)pyrido[3,4-d]pyrimidin-4(3H)-one]", "values": [
      {"measurement": "inhibition at 0.1 µM", "result": "20 to 50", "unit": "%"}
    ]},
    {"compound": "CN1CCCC1CCNc1nc(-c2nccc3c(=O)[nH]cnc23)cs1", "note": "(centres unmarked) [Compound 48, 8-(2-((2-(1-methylpyrrolidin-2-yl)ethyl)amino)thiazol-4-yl)pyrido[3,4-d]pyrimidin-4(3H)-one]", "values": [
      {"measurement": "inhibition at 0.1 µM", "result": "20 to 50", "unit": "%"}
    ]},
    {"compound": "O=c1[nH]cnc2c(-c3csc(NC4CCNCC4)n3)nccc12", "note": "[Compound 49, 8-(2-(piperidin-4-ylamino)thiazol-4-yl)pyrido[3,4-d]pyrimidin-4(3H)-one]", "values": [
      {"measurement": "inhibition at 0.1 µM", "result": "20 to 50", "unit": "%"}
    ]},
    {"compound": "CN1CCC(Nc2nc(-c3nccc4c(=O)[nH]cnc34)cs2)CC1", "note": "[Compound 50, 8-(2-((1-methylpiperidin-4-yl)amino)thiazol-4-yl)pyrido[3,4-d]pyrimidin-4(3H)-one]", "values": [
      {"measurement": "inhibition at 0.1 µM", "result": "20 to 50", "unit": "%"}
    ]},
    {"compound": "O=c1[nH]cnc2c(-c3csc(NCC4CCN(CCO)CC4)n3)nccc12", "note": "[Compound 51, 8-(2-(((1-(2-hydroxyethyl)piperidin-4-yl)methyl)amino)thiazol-4-yl)pyrido[3,4-d]pyrimidin-4(3H)-one]", "values": [
      {"measurement": "inhibition at 0.1 µM", "result": "≥ 50", "unit": "%"}
    ]},
    {"compound": "O=c1[nH]cnc2c(-c3csc(NCC4CCN(Cc5ccccc5)CC4)n3)nccc12", "note": "[Compound 52, 8-(2-(((1-benzylpiperidin-4-yl)methyl)amino)thiazol-4-yl)pyrido[3,4-d]pyrimidin-4(3H)-one]", "values": [
      {"measurement": "inhibition at 0.1 µM", "result": "≥ 50", "unit": "%"}
    ]},
    {"compound": "COCCN1CCC(CNc2nc(-c3nccc4c(=O)[nH]cnc34)cs2)CC1", "note": "[Compound 53, 8-(2-(((1-(2-methoxyethyl)piperidin-4-yl)methyl)amino)thiazol-4-yl)pyrido[3,4-d]pyrimidin-4(3H)-one]", "values": [
      {"measurement": "inhibition at 0.1 µM", "result": "≥ 50", "unit": "%"}
    ]},
    {"compound": "O=c1[nH]cnc2c(-c3csc(NCC4CCN(C5CCCC5)CC4)n3)nccc12", "note": "[Compound 54, 8-(2-(((1-cyclopentylpiperidin-4-yl)methyl)amino)thiazol-4-yl)pyrido[3,4-d]pyrimidin-4(3H)-one]", "values": [
      {"measurement": "inhibition at 0.1 µM", "result": "≥ 50", "unit": "%"}
    ]},
    {"compound": "CC(C)N1CCC(CNc2nc(-c3nccc4c(=O)[nH]cnc34)cs2)CC1", "note": "[Compound 55, 8-(2-(((1-isopropylpiperidin-4-yl)methyl)amino)thiazol-4-yl)pyrido[3,4-d]pyrimidin-4(3H)-one]", "values": [
      {"measurement": "inhibition at 0.1 µM", "result": "≥ 50", "unit": "%"}
    ]},
    {"compound": "O=c1[nH]cnc2c(-c3csc(NCC4CCNCC4)n3)nccc12", "note": "[Compound 56, 8-(2-((piperidin-4-ylmethyl)amino)thiazol-4-yl)pyrido[3,4-d]pyrimidin-4(3H)-one]", "values": [
      {"measurement": "inhibition at 0.1 µM", "result": "≥ 50", "unit": "%"}
    ]},
    {"compound": "N[C@H]1CC[C@@H](Nc2nc(-c3nccc4c(=O)[nH]cnc34)cs2)CC1", "note": "[Compound 57, 8-(2-(((1s,4s)-4-aminocyclohexyl)amino)thiazol-4-yl)pyrido[3,4-d]pyrimidin-4(3H)-one]", "values": [
      {"measurement": "inhibition at 0.1 µM", "result": "20 to 50", "unit": "%"}
    ]},
    {"compound": "CN1CCOC(CNc2nc(-c3nccc4c(=O)[nH]cnc34)cs2)C1", "note": "(centres unmarked) [Compound 58, 8-(2-(((4-methylmorpholin-2-yl)methyl)amino)thiazol-4-yl)pyrido[3,4-d]pyrimidin-4(3H)-one]", "values": [
      {"measurement": "inhibition at 0.1 µM", "result": "20 to 50", "unit": "%"}
    ]},
    {"compound": "CN1CCC(CNc2nc(-c3nccc4c(=O)[nH]cnc34)cs2)C1", "note": "(centres unmarked) [Compound 59, 8-(2-(((1-methylpyrrolidin-3-yl)methyl)amino)thiazol-4-yl)pyrido[3,4-d]pyrimidin-4(3H)-one]", "values": [
      {"measurement": "inhibition at 0.1 µM", "result": "20 to 50", "unit": "%"}
    ]},
    {"compound": "CCC(O)CNc1nc(-c2nccc3c(=O)[nH]cnc23)cs1", "note": "(centres unmarked) [Compound 60, 8-(2-((2-hydroxybutyl)amino)thiazol-4-yl)pyrido[3,4-d]pyrimidin-4(3H)-one]", "values": [
      {"measurement": "inhibition at 0.1 µM", "result": "20 to 50", "unit": "%"}
    ]},
    {"compound": "O=c1[nH]cnc2c(-c3csc(NC4CCN(Cc5ccccc5)CC4)n3)nccc12", "note": "[Compound 61, 8-(2-((1-benzylpiperidin-4-yl)amino)thiazol-4-yl)pyrido[3,4-d]pyrimidin-4(3H)-one]", "values": [
      {"measurement": "inhibition at 0.1 µM", "result": "20 to 50", "unit": "%"}
    ]}
  ]
}
